Laboratory results published in ChEMBL document CHEMBL1201862, “PubChem BioAssay data set” (2004).
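How tested: cells in 96-well plates exposed to compound for 48 hours at five concentrations. Abbreviation: GI50, concentration required for 50% inhibition of growth.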 The source made the active and inactive calls. Cut-off read from the data, not from the text of the source: active = GI50 up to about 1.1 µM and inactive = higher.

Tests used:
Test in all cases: NCI-60 cell line screen, 48 h
[1] = test system: A549
[2] = test system: CAKI-1
[3] = test system: CCRF-CEM
[4] = test system: HCT-116
[5] = test system: HCT-15
[6] = test system: Hs-578T
[7] = test system: IGROV-1
[8] = test system: KM12
[9] = test system: M14
[10] = test system: NCI-H226
[11] = test system: NCI-H23
[12] = test system: NCI-H460
[13] = test system: OVCAR-3
[14] = test system: OVCAR-5
[15] = test system: OVCAR-8
[16] = test system: SK-OV-3
[17] = test system: SNB-19
[18] = test system: HOP-62
[19] = test system: SNB-75

SMILES	GI50 [1]	GI50 [2]	GI50 [3]	GI50 [4]	GI50 [5]	GI50 [6]	GI50 [7]	GI50 [8]	GI50 [9]	GI50 [10]	GI50 [11]	GI50 [12]	GI50 [13]	GI50 [14]	GI50 [15]	GI50 [16]	GI50 [17]	GI50 [18]	GI50 [19]
CCCCc1ccc(Nc2nc(N)c3[nH]cnc3n2)cc1	21.3 µM (inactive)	15.5 µM (inactive)	21.7 µM (inactive)	17.1 µM (inactive)	25 µM	17.7 µM (inactive)	12.1 µM (inactive)	18.3 µM (inactive)	31.2 µM (inactive)	8.73 µM (inactive)	17.1 µM (inactive)	22.9 µM (inactive)	20.7 µM (inactive)	30.5 µM (inactive)	15.8 µM (inactive)	20.8 µM (inactive)	17.8 µM (inactive)		
CC1CCCC2=C1C(c1ccc(Cl)cc1)n1c(s/c(=C\c3ccc(Cl)cc3)c1=O)=N2 (configuration not stated)	> 100 µM (inactive)	> 100 µM (inactive)	> 100 µM (inactive)	> 100 µM (inactive)	> 100 µM	> 100 µM (inactive)	> 100 µM (inactive)	> 100 µM (inactive)	> 100 µM (inactive)					> 100 µM (inactive)	> 100 µM (inactive)	> 100 µM (inactive)	> 100 µM (inactive)	> 100 µM (inactive)	> 100 µM (inactive)
Clc1ccc(C2=NN=C3C(c4ccccc4)=Nc4ccccc4N3C2)cc1	13.5 µM (inactive)	7.19 µM (inactive)	2.03 µM (inactive)	4.17 µM (inactive)	4.73 µM	2.09 µM (inactive)	7.87 µM (inactive)	6.82 µM (inactive)	2.79 µM (inactive)	6.52 µM (inactive)	16.3 µM (inactive)	1.38 µM (inactive)	2.02 µM (inactive)		4.05 µM (inactive)	> 74.8 µM (inactive)	11.7 µM (inactive)	10.8 µM (inactive)	
CCN(CC)Cc1ccc(Nc2c3ccccc3nc3ccccc23)cc1	1.28 µM (inactive)	1.41 µM (inactive)	1.82 µM (inactive)	1.16 µM (inactive)	1 µM	4.86 µM (inactive)	3 µM (inactive)	3.17 µM (inactive)	1.77 µM (inactive)		1.99 µM (inactive)	1.19 µM (inactive)	3.03 µM (inactive)	2.17 µM (inactive)	3.05 µM (inactive)	2 µM (inactive)	1.35 µM (inactive)	2.38 µM (inactive)	
COC12OC3(C4OC41)C(C(=O)O[C@H]3CO[Si](C)(C)C(C)(C)C)C2S(=O)(=O)c1ccccc1 (some centres not stated)	> 4.65 µM (inactive)	2.71 µM (inactive)	0.597 µM (active)	4.16 µM (inactive)	3.16 µM	4.65 µM (inactive)				> 100 µM (inactive)	> 100 µM (inactive)	> 62.1 µM (inactive)	> 100 µM (inactive)	> 4.65 µM (inactive)	4.65 µM (inactive)	> 4.65 µM (inactive)		> 4.65 µM (inactive)	
CC(C)(C)OC(=O)C1/C(=C/CBr)CN1C(=O)OC(C)(C)C (configuration not stated)	18.9 µM (inactive)	16.5 µM (inactive)	2.64 µM (inactive)	11.4 µM (inactive)	8.67 µM	22 µM (inactive)	5.5 µM (inactive)		16.6 µM (inactive)		10.5 µM (inactive)	16.7 µM (inactive)	14.7 µM (inactive)	18.7 µM (inactive)	16.9 µM (inactive)	21.1 µM (inactive)	17.6 µM (inactive)	15.8 µM (inactive)	
CC(CN(C)C)C(=O)c1ccccc1C(=O)O (configuration not stated)	41.1 µM (inactive)	28.2 µM (inactive)	10.1 µM (inactive)	32.1 µM (inactive)	31.6 µM	11.1 µM (inactive)	44 µM (inactive)	30.5 µM (inactive)	26.4 µM (inactive)		26.5 µM (inactive)		14.7 µM (inactive)	52.4 µM (inactive)	30.3 µM (inactive)	39.4 µM (inactive)	39.2 µM (inactive)	20.6 µM (inactive)	
CCOC(=O)c1nnc2c(C#N)c(-c3ccccc3)c(C)n2c1N	39.9 µM (inactive)	52.6 µM (inactive)	39.7 µM (inactive)	42.2 µM (inactive)	37.5 µM	24.6 µM (inactive)	22.2 µM (inactive)	30.6 µM (inactive)	34.9 µM (inactive)		38.3 µM (inactive)	39.8 µM (inactive)	29.4 µM (inactive)	> 100 µM (inactive)	28.4 µM (inactive)	23.9 µM (inactive)	21.3 µM (inactive)	85.7 µM (inactive)	
CCOC(=O)C1(C(=O)OCC)C[C@]23OCCC(=O)[C@H]2[C@H]2C(=O)OC(C)(C)O[C@]23C1	> 100 µM (inactive)	> 100 µM (inactive)	> 100 µM (inactive)	> 100 µM (inactive)	> 100 µM	> 100 µM (inactive)	> 100 µM (inactive)	> 100 µM (inactive)	> 100 µM (inactive)		> 100 µM (inactive)	> 100 µM (inactive)	> 100 µM (inactive)	> 100 µM (inactive)	> 100 µM (inactive)		> 100 µM (inactive)	> 100 µM (inactive)	> 100 µM (inactive)
N#Cc1c(-c2cccc(Cl)c2)cc(-c2ccc(Cl)cc2)nc1N	17.5 µM (inactive)	26.1 µM (inactive)	18.3 µM (inactive)	16.5 µM (inactive)	17.1 µM	21.1 µM (inactive)	10.1 µM (inactive)	25.2 µM (inactive)	19.1 µM (inactive)	16.3 µM (inactive)	17.5 µM (inactive)	18.8 µM (inactive)	23.7 µM (inactive)	21.7 µM (inactive)	24.6 µM (inactive)	18.3 µM (inactive)	11.9 µM (inactive)	17.3 µM (inactive)	
Cc1nc2c(=S)[nH]ncc2[nH]1	> 100 µM (inactive)	> 100 µM (inactive)	> 100 µM (inactive)	> 100 µM (inactive)	> 100 µM		> 100 µM (inactive)	> 100 µM (inactive)	> 100 µM (inactive)	> 100 µM (inactive)	> 100 µM (inactive)		> 100 µM (inactive)	> 100 µM (inactive)	> 100 µM (inactive)	> 100 µM (inactive)	> 100 µM (inactive)	> 100 µM (inactive)	> 100 µM (inactive)
N/C(=N\NC(=O)c1nc2ccccc2s1)c1ccccn1	3.19 µM (inactive)	1.55 µM (inactive)	2.42 µM (inactive)	3.28 µM (inactive)	2.56 µM	> 100 µM (inactive)	12.8 µM (inactive)	8.79 µM (inactive)	3.01 µM (inactive)		9.86 µM (inactive)	2.85 µM (inactive)	3.92 µM (inactive)	5.89 µM (inactive)	5.33 µM (inactive)	9.79 µM (inactive)	16 µM (inactive)	10.3 µM (inactive)	7.74 µM (inactive)
COC(=O)c1ccc2c(c1)CC1(C2)Cc2cc3c(cc2C1)CCC3	> 100 µM (inactive)	> 100 µM (inactive)	> 100 µM (inactive)	> 100 µM (inactive)	> 100 µM	> 100 µM (inactive)	> 100 µM (inactive)		> 100 µM (inactive)		> 100 µM (inactive)	> 100 µM (inactive)	> 100 µM (inactive)	> 100 µM (inactive)	> 100 µM (inactive)	> 100 µM (inactive)	> 100 µM (inactive)	> 100 µM (inactive)	> 100 µM (inactive)
CC(C)(C)N(Cc1ccc2c(c1)OCO2)C(=O)/C=C\Sc1ccccc1	47 µM (inactive)	> 100 µM (inactive)	43.5 µM (inactive)	23.9 µM (inactive)	63.8 µM		83.2 µM (inactive)	81.8 µM (inactive)	77.1 µM (inactive)	68.2 µM (inactive)	> 100 µM (inactive)		> 100 µM (inactive)	> 100 µM (inactive)	> 100 µM (inactive)	> 100 µM (inactive)	> 100 µM (inactive)	> 100 µM (inactive)	
CN(C(=O)[C@@H](NC(=O)OC(C)(C)C)c1ccccc1)[C@H]1CCCC[C@@H]1N1CCCC1	> 100 µM (inactive)	> 100 µM (inactive)		> 100 µM (inactive)	> 100 µM	> 100 µM (inactive)	> 100 µM (inactive)	> 100 µM (inactive)	> 100 µM (inactive)	> 100 µM (inactive)	> 100 µM (inactive)		> 100 µM (inactive)	> 100 µM (inactive)	> 100 µM (inactive)	> 100 µM (inactive)	> 100 µM (inactive)	> 100 µM (inactive)	
N#C[BH2-][n+]1cn(C2CC(O)C(COP(=O)(O)OC3CC(n4cnc5c(=O)[nH]c(N)nc54)OC3CO)O2)c2nc(N)[nH]c(=O)c21 (configuration not stated)	> 100 µM (inactive)	> 100 µM (inactive)	20.5 µM (inactive)	> 100 µM (inactive)	> 100 µM		22 µM (inactive)	> 100 µM (inactive)	> 100 µM (inactive)	23.1 µM (inactive)	> 100 µM (inactive)	> 100 µM (inactive)	> 100 µM (inactive)	> 100 µM (inactive)	> 100 µM (inactive)		> 100 µM (inactive)	84.7 µM (inactive)	> 100 µM (inactive)
N#Cc1c(N2CCN(c3ccc([N+](=O)[O-])cc3)CC2)[n+]([O-])c2ccccc2[n+]1[O-]	99.5 µM (inactive)	> 100 µM (inactive)	4.94 µM (inactive)	> 100 µM (inactive)	> 100 µM		17.4 µM (inactive)	> 100 µM (inactive)	> 100 µM (inactive)		> 100 µM (inactive)	> 100 µM (inactive)	> 100 µM (inactive)	> 100 µM (inactive)	20.5 µM (inactive)	> 100 µM (inactive)	> 100 µM (inactive)	> 100 µM (inactive)	> 100 µM (inactive)
